This note sets out measurements from patent publication US9452986B2, “6-heteroaryloxy- or 6-aryloxy-quinoline-2-carboxamides and method of use” (AbbVie Inc., priority 2014, dated 2016).

SMILES strings stand for the structures. Read-outs that look alike come from different tables or passages of the source.

This experiment concerns the target recombinant human Nav1.7 (Homo sapiens (Human), UniProt Q15858). The experiment in a line: FRET-based membrane potential assay, recombinant human sodium channel Nav1.7. The note with it: read-out: FRET-Membrane Potential Nav1.7 IC50. The class given is cell-based. In outline:
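Channel activation used veratridine at its EC80, set by a dilution curve each experiment, together with Leiurus scorpion venom, added 3 min after compound. Membrane-potential ratio signals from FLIPR Tetra in HEPES-buffered HBSS were fitted to a four-parameter Hill equation for percent inhibition and IC50.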

[1] abbreviates: HEK293 cells stably expressing recombinant human Nav1.7, veratridine + scorpion venom depolarization.

Chain of recombinant human Nav1.7 (Q15858 whole entry): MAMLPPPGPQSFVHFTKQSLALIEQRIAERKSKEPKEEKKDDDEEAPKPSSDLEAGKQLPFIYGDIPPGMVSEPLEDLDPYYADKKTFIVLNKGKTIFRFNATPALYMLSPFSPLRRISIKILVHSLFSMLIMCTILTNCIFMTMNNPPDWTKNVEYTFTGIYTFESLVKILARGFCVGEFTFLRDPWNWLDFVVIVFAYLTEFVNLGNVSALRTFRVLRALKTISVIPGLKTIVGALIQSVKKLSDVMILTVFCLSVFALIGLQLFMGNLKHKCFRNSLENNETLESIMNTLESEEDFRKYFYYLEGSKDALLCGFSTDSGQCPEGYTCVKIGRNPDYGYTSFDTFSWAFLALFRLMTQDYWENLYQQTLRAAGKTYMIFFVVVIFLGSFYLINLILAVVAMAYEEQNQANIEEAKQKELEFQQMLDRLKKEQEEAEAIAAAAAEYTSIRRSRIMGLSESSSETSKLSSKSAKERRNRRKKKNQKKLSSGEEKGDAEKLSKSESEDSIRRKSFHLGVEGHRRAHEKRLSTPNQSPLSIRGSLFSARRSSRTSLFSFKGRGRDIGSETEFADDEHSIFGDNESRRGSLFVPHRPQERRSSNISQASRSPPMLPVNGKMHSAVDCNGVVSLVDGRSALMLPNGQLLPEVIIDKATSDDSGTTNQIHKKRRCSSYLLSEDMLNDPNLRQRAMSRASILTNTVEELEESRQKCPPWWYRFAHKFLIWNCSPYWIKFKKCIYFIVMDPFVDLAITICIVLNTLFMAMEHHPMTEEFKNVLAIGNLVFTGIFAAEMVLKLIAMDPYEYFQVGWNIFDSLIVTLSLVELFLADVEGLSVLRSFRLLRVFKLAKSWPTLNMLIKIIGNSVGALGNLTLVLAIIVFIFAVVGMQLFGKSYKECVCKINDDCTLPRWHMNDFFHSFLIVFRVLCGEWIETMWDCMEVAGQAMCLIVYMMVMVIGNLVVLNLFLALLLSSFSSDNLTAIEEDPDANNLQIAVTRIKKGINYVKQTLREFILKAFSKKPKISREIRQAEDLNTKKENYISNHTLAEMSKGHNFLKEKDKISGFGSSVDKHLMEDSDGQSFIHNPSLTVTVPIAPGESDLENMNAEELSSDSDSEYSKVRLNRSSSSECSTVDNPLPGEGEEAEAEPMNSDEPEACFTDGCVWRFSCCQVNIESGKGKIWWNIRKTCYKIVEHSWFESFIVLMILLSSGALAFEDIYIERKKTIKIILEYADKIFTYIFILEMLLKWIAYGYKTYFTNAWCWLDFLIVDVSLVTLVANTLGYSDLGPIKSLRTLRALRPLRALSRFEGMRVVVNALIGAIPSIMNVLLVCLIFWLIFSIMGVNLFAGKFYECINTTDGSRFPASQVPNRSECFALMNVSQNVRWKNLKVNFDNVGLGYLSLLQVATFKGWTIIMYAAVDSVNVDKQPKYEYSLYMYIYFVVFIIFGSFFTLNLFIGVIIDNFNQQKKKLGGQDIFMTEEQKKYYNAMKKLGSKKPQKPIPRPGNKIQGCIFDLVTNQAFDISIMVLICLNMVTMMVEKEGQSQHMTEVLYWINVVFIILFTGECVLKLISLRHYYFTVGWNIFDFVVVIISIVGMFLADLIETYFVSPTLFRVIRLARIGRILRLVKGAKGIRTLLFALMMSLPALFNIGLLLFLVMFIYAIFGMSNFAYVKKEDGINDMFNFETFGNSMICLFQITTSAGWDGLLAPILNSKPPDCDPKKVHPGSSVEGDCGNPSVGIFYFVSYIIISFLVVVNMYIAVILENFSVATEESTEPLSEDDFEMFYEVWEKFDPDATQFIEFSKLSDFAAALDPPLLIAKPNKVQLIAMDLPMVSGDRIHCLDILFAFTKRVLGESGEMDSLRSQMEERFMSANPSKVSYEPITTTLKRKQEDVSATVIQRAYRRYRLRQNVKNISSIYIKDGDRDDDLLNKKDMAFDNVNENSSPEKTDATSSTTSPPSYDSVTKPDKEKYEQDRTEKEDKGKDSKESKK

On to `O=C(c1ccc2cc(Oc3ccc(C(F)(F)F)cn3)ccc2n1)N1CCc2ccccc2C1` [Example 253, 3,4-dihydroisoquinolin-2(1H)-yl(6-{[5-(trifluoromethyl)pyridin-2-yl]oxy}quinolin-2-yl)methanone], for which, under setting [1], the half-maximal inhibitory concentration (IC50) – broadly, the concentration that inhibits the measured activity by half – is above 20 µM.

`O=C(c1ccc2cc(Oc3ccc(C(F)(F)F)cn3)ccc2n1)N1CCN(Cc2ccccn2)CC1` [Example 308, [4-(pyridin-2-ylmethyl)piperazin-1-yl](6-{[5-(trifluoromethyl)pyridin-2-yl]oxy}quinolin-2-yl)methanone]: the 50% inhibitory concentration (IC50) under setting [1] was determined as 3.07 µM.

Turning to `N#Cc1ccc(Oc2ccc3nc(C(=O)N[C@@H]4CCOC4=O)ccc3c2)cc1` [Example 113, 6-(4-cyanophenoxy)-N-[(3R)-2-oxotetrahydrofuran-3-yl]quinoline-2-carboxamide], under setting [1], the half-maximal inhibitory concentration (IC50) turned out to be 0.741 µM.

Regarding `O=C(c1ccc2cc(Oc3ccc(C(F)(F)F)cn3)ccc2n1)N1CC(F)(F)C[C@@H]1CO` [Example 496, [(2R)-4,4-difluoro-2-(hydroxymethyl)pyrrolidin-1-yl](6-{[5-(trifluoromethyl)pyridin-2-yl]oxy}quinolin-2-yl)methanone], under setting [1], the IC50 is 2.91 µM.

As for `O=C(N[C@@H]1CCNC[C@H]1F)c1ccc2cc(Oc3ccc(C(F)(F)F)cn3)ccc2n1` [Example 584, N-[(3R,4R)-3-fluoropiperidin-4-yl]-6-{[5-(trifluoromethyl)pyridin-2-yl]oxy}quinoline-2-carboxamide], under setting [1], the IC50 was 0.304 µM.

As to `CC[C@H]1CN(C(=O)c2ccc3cc(Oc4ccc(C(F)(F)F)nc4)ccc3n2)CCN1` [Example 553, [(3S)-3-ethylpiperazin-1-yl](6-{[6-(trifluoromethyl)pyridin-3-yl]oxy}quinolin-2-yl)methanone], the concentration for half-maximal inhibition (IC50) worked out at 0.949 µM.

On to `COC(C)(C)CNC(=O)c1ccc2cc(Oc3ccc(C(F)(F)F)cn3)ccc2n1` [Example 541, N-(2-methoxy-2-methylpropyl)-6-{[5-(trifluoromethyl)pyridin-2-yl]oxy}quinoline-2-carboxamide], for which the IC50 under setting [1] was found to be 1.19 µM.

For `O=C(c1ccc2cc(Oc3ccc(C(F)(F)F)cn3)ccc2n1)N1CCCC(F)(F)C1` [Example 312, (3,3-difluoropiperidin-1-yl)(6-{[5-(trifluoromethyl)pyridin-2-yl]oxy}quinolin-2-yl)methanone], the IC50 under setting [1] was 6.93 µM.

In the case of `O=C(c1ccc2cc(Oc3ccc(C(F)(F)F)cn3)ccc2n1)N1CCC2(COC2)C1` [Example 494, 2-oxa-6-azaspiro[3.4]oct-6-yl(6-{[5-(trifluoromethyl)pyridin-2-yl]oxy}quinolin-2-yl)methanone], under setting [1], the IC50 stood at 9.32 µM.

Turning to `O=C(c1ccc2cc(Oc3ccc(C(F)(F)F)cn3)ccc2n1)N1CCN(S(=O)(=O)c2cccnc2)CC1` [Example 183, [4-(pyridin-3-ylsulfonyl)piperazin-1-yl](6-{[5-(trifluoromethyl)pyridin-2-yl]oxy}quinolin-2-yl)methanone], the IC50 under setting [1] is above 20 µM.

As for `CCN(CC)C(=O)CNC(=O)c1ccc2cc(Oc3ccc(C(F)(F)F)cn3)ccc2n1` [Example 446, N-[2-(diethylamino)-2-oxoethyl]-6-{[5-(trifluoromethyl)pyridin-2-yl]oxy}quinoline-2-carboxamide], the IC50 amounted to 0.166 µM.

Consider `O=C(c1ccc2cc(Oc3ccc(C(F)(F)F)cn3)ccc2n1)N1CCN(CC(F)(F)F)CC1` [Example 181, [4-(2,2,2-trifluoroethyl)piperazin-1-yl](6-{[5-(trifluoromethyl)pyridin-2-yl]oxy}quinolin-2-yl)methanone], for which, under setting [1], the IC50 was found to be 3.47 µM.

Consider `O=C(NCC(=O)N1CCCC1)c1ccc2cc(Oc3ccc(C(F)(F)F)nc3)ccc2n1` [Example 513, N-[2-oxo-2-(pyrrolidin-1-yl)ethyl]-6-{[6-(trifluoromethyl)pyridin-3-yl]oxy}quinoline-2-carboxamide], for which the concentration for half-maximal inhibition (IC50) turned out to be 0.911 µM.

Turning to `N#Cc1ccc(Oc2ccc3nc(C(=O)N[C@@H]4CCOC4)ccc3c2)cc1` [Example 117, 6-(4-cyanophenoxy)-N-[(3R)-tetrahydrofuran-3-yl]quinoline-2-carboxamide], the IC50 is 2.23 µM.

As for `CC(C)[C@H](CO)NC(=O)c1ccc2cc(Oc3ccc(C#N)cc3)ccc2n1` [Example 91, 6-(4-cyanophenoxy)-N-[(2R)-1-hydroxy-3-methylbutan-2-yl]quinoline-2-carboxamide], under setting [1], the 50% inhibitory concentration (IC50) was determined as 3.25 µM.

For `CC1(CN2CCN(C(=O)c3ccc4cc(Oc5ccc(C(F)(F)F)cn5)ccc4n3)CC2)COC1` [Example 286, {4-[(3-methyloxetan-3-yl)methyl]piperazin-1-yl}(6-{[5-(trifluoromethyl)pyridin-2-yl]oxy}quinolin-2-yl)methanone], the IC50 under setting [1] amounted to 11.4 µM.

On to `COCCNC(=O)CN(C)C(=O)c1ccc2cc(Oc3ccc(C(F)(F)F)nc3)ccc2n1` [Example 514, N-{2-[(2-methoxyethyl)amino]-2-oxoethyl}-N-methyl-6-{[6-(trifluoromethyl)pyridin-3-yl]oxy}quinoline-2-carboxamide], for which, under setting [1], the 50% inhibitory concentration (IC50) is 12.9 µM.

As to `O=C(c1ccc2cc(Oc3nnc(C(F)(F)F)s3)ccc2n1)N1CCNCC1` [Example 320, piperazin-1-yl(6-{[5-(trifluoromethyl)-1,3,4-thiadiazol-2-yl]oxy}quinolin-2-yl)methanone], the half-maximal inhibitory concentration (IC50) under setting [1] was found to be 17.1 µM.

`O=C(c1ccc2cc(Oc3ccc(C(F)(F)F)cn3)ccc2n1)N1CCOC(CO)C1` (stereo not shown) [Example 339, [2-(hydroxymethyl)morpholin-4-yl](6-{[5-(trifluoromethyl)pyridin-2-yl]oxy}quinolin-2-yl)methanone]: the IC50 under setting [1] was 14.4 µM.

Consider `CCN(CC)C(=O)CNC(=O)c1ccc2cc(Oc3ccc(C(F)F)cn3)ccc2n1` [Example 461, N-[2-(diethylamino)-2-oxoethyl]-6-{[5-(difluoromethyl)pyridin-2-yl]oxy}quinoline-2-carboxamide], for which, under setting [1], the concentration for half-maximal inhibition (IC50) stood at 0.354 µM.

On to `O=C(c1ccc2cc(Oc3ccc(C(F)F)cn3)ccc2n1)N1CC[C@H](F)C1` [Example 576, (6-{[5-(difluoromethyl)pyridin-2-yl]oxy}quinolin-2-yl) [(3S)-3-fluoropyrrolidin-1-yl]methanone], for which, under setting [1], the concentration for half-maximal inhibition (IC50) was 10.1 µM.

As to `C[C@@H]1CN2C[C@@H](F)C[C@@H]2CN1C(=O)c1ccc2cc(Oc3ccc(C(F)(F)F)cn3)ccc2n1` [Example 357, [(3R,7S,8aR)-7-fluoro-3-methylhexahydropyrrolo[1,2-a]pyrazin-2(1H)-yl](6-{[5-(trifluoromethyl)pyridin-2-yl]oxy}quinolin-2-yl)methanone], the IC50 under setting [1] turned out to be 2.72 µM.

In the case of `O=C(c1ccc2cc(Oc3ccc(C(F)(F)F)cn3)ccc2n1)N1CCN(S(=O)(=O)CCC(F)(F)F)CC1` [Example 332, (6-{[5-(trifluoromethyl)pyridin-2-yl]oxy}quinolin-2-yl) {4-[(3,3,3-trifluoropropyl)sulfonyl]piperazin-1-yl}methanone], the IC50 under setting [1] stood at 10.1 µM.

Consider `O=C(c1ccc2cc(Oc3ccc(C(F)(F)F)cc3)ccc2n1)N1CCNCC1` [Example 249, piperazin-1-yl {6-[4-(trifluoromethyl)phenoxy]quinolin-2-yl}methanone], for which the IC50 was 0.902 µM.

In the case of `N#Cc1ccc(Oc2ccc3nc(C(=O)Nc4ccc5cn[nH]c5c4)ccc3c2)cc1` [Example 84, 6-(4-cyanophenoxy)-N-(1H-indazol-6-yl)quinoline-2-carboxamide], the IC50 was above 20 µM.
